# Test results taken from US7781453B2, “Aminopyridine-derivatives” (Altana Pharma AG, priority 2003, dated 2010).
row,Compound,melting point [°C]
1,Cc1cc(N)nc(CCc2nc3cc(-c4ccc(Cl)cc4)cnc3[nH]2)c1.Cl,228 to 230
2,Cc1cc(N)nc(CCc2nc3cccnc3[nH]2)c1.Cl,136
3,CC(=O)O.Cc1cc(N)nc(CCc2nc3cccnc3[nH]2)c1,54
4,Cc1ccc(-c2cnc3[nH]c(CCc4cc(C)cc(N)n4)nc3c2)cc1.Cl,186
5,"Cc1cc(N)nc(CC(C)c2nc3cccnc3[nH]2)c1 (racemic) [compound 2, (R,S)-2-[3-(2-Amino-4-methylpyridin-6-yl)prop-2-yl]-3H-imidazo[4,5-b]pyridine]",48
6,"Cc1cc(N)nc(CCc2nc3cccnc3[nH]2)c1 [compound 1, 2-[2-(2-Amino-4-methylpyridin-6-yl)ethyl]-3H-imidazo[4,5-b]pyridine]",45 to 47
7,"Cc1cc(N)nc(CCc2nc3cc(Br)cnc3[nH]2)c1 [compound 4, 2-[2-(2-Amino-4-methylpyridin-6-yl)ethyl]-6-bromo-3H-imidazo[4,5-b]pyridine]",216
8,"Cc1cc(N)nc(CCc2nc3cc(-c4ccccc4)cnc3[nH]2)c1 [compound 5, 2-[2-(2-Amino-4-methylpyridin-6-yl)ethyl]-6-phenyl-3H-imidazo[4,5-b]pyridine]",230
9,"Cc1cc(N)nc(CCc2nc3cc(-c4ccc(C#N)cc4)cnc3[nH]2)c1 [compound 6, 2-[2-(2-Amino-4-methylpyridin-6-yl)ethyl]-6-(4-cyano-phenyl)-3H-imidazo[4,5-b]pyridine]",218
10,"Cc1cc(N)nc(CCc2nc3cc(-c4cccc(OCc5ccccc5)c4)cnc3[nH]2)c1 [compound 13, 6-{2-[6-(3-Benzyloxy-phenyl)-3H-imidazo[4,5-b]pyridin-2-yl]-ethyl}-4-methyl-pyridin-2-ylamine]",181
11,"Cc1cc(N)nc(CCc2nc3cc(-c4cc(Cl)cc(Cl)c4)cnc3[nH]2)c1 [compound 14, 6-{2-[6-(3,5-Dichloro-phenyl)-3H-imidazo[4,5-b]pyridin-2-yl]-ethyl}-4-methyl-pyridin-2-ylamine]",224
12,"Cc1cc(N)nc(CCc2nc3cc(-c4ccc(OCc5ccccc5)cc4)cnc3[nH]2)c1 [compound 15, 6-{2-[6-(4-Benzyloxy-phenyl)-3H-imidazo[4,5-b]pyridin-2-yl]-ethyl}-4-methyl-pyridin-2-ylamine]",225
13,"Cc1cc(N)nc(CCc2nc3cc(-c4cccc(O)c4)cnc3[nH]2)c1 [compound 16, 3-{2-[2-(6-Amino-4-methyl-pyridin-2-yl)-ethyl]-3H-imidazo[4,5-b]pyridin-6-yl}-phenol]",162
14,"Cc1cc(N)nc(CCc2nc3cc(-c4ccc(S(=O)(=O)N5CCC5)cc4)cnc3[nH]2)c1 [compound 17, 6-(2-{6-[4-(Azetidine-1-sulfonyl)-phenyl]-3H-imidazo[4,5-b]pyridin-2-yl}-ethyl)-4-methyl-pyridin-2-ylamine]",168
15,"Cc1cc(N)nc(CCc2nc3cc(-c4ccc(S(=O)(=O)N5CCCC5)cc4)cnc3[nH]2)c1 [compound 18, 4-Methyl-6-(2-{6-[4-(pyrrolidine-1-sulfonyl)-phenyl]-3H-imidazo[4,5-b]pyridin-2-yl}-ethyl)-pyridin-2-ylamine]",171
16,"Cc1cc(N)nc(CCc2nc3cc(-c4ccc(S(=O)(=O)N5CCCCC5)cc4)cnc3[nH]2)c1 [compound 19, 4-Methyl-6-(2-{6-[4-(piperidine-1-sulfonyl)-phenyl]-3H-imidazo[4,5-b]pyridin-2-yl}-ethyl)-pyridin-2-ylamine]",233
17,"Cc1cc(N)nc(CCc2nc3cc(-c4ccc(S(=O)(=O)N5CCN(C)CC5)cc4)cnc3[nH]2)c1 [compound 21, 4-Methyl-6-(2-{6-[4-(4-methyl-piperazine-1-sulfonyl)-phenyl]-3H-imidazo[4,5-b]pyridin-2-yl}-ethyl)-pyridin-2-ylamine]",135
